# Assay results published in patent US9944602B2, “Piperidinone herbicides” (E. I. DU PONT DE NEMOURS AND COMPANY, priority 2014, dated 2018).
# What was measured:
# Type in all cases: in vivo
# [1] = test system: morningglory (Ipomoea coccinea); assay: Test C preemergence morningglory; conditions: Table C, scale 0 to 100
# From the text: (§1) Seeds of plant species selected from blackgrass (Alopecurus myosuroides), ryegrass, Italian (Italian ryegrass, Lolium multiflorum), wheat (winter wheat, Triticum aestivum), galium (catchweed bedstraw, Galium aparine), corn (Zea mays), crabgrass, large (large crabgrass, Digitaria sanguinalis), foxtail, giant (giant foxtail, Setaria faberii), johnsongrass (Sorghum halepense), lambsquarters (Chenopodium album), morningglory (Ipomoea coccinea), yellow (yellow nutsedge, Cyperus esculentus), pigweed (Amaranthus retroflexus), ragweed (common ragweed, Ambrosia elatior), soybean (Glycine max), barnyardgrass (Echinochloa crus-galli), oilseed rape (Brassica napus), waterhemp (common waterhemp, Amaranthus rudis), and velvetleaf (Abutilon theophrasti) were planted into a blend of loam soil and sand and treated preemergence with test chemicals formulated in a non-phytotoxic solvent mixture which included a surfactant. At the same time, plants selected from these crop and weed species and also chickweed (common chickweed, Stellaria media), kochia (Kochia scoparia), and oat, wild (wild oat, Avena fatua) were planted in pots containing Sunshine Redi-Earth® planting medium comprising spaghnum peat moss, vermiculite, starter nutrients and dolomitic limestone and treated with postemergence applications of test chemicals formulated in the same manner. Plants ranged in height from 2 to 18 cm (1- to 4-leaf stage) for postemergence treatments. Treated plants and controls were maintained in a greenhouse for 13 to 15 days, after which time all species were compared to controls and visually evaluated. Plant response ratings, summarized in Table C, are based on a scale of 0 to 100 where 0 is no effect and 100 is complete control. A dash (-) response means no test result.
# [2] = test system: blackgrass (Alopecurus myosuroides); assay: Test C preemergence blackgrass; conditions: Table C, scale 0 to 100
# From the text: as §1
# [3] = test system: velvetleaf (Abutilon theophrasti); assay: Test C preemergence velvetleaf; conditions: Table C, scale 0 to 100
# From the text: as §1
# [4] = test system: johnsongrass (Sorghum halepense); assay: Test C preemergence johnsongrass; conditions: Table C, scale 0 to 100
# From the text: as §1
# [5] = test system: oilseed rape (Brassica napus); assay: Test C preemergence oilseed rape; conditions: Table C, scale 0 to 100
# From the text: as §1
# [6] = test system: ryegrass, Italian (Italian ryegrass, Lolium multiflorum); assay: Test C preemergence ryegrass, Italian; conditions: Table C, scale 0 to 100
# From the text: as §1
# corn (Zea mays) = assay: Test C preemergence corn; conditions: Table C, scale 0 to 100
# From the text: as §1
# [7] = test system: yellow (yellow nutsedge, Cyperus esculentus); assay: Test C preemergence yellow nutsedge; conditions: Table C, scale 0 to 100
# From the text: as §1
# [8] = test system: crabgrass, large (large crabgrass, Digitaria sanguinalis); assay: Test C preemergence crabgrass, large; conditions: Table C, scale 0 to 100
# From the text: as §1
# [9] = test system: chickweed (common chickweed, Stellaria media); assay: Test C postemergence chickweed; conditions: Table C, scale 0 to 100
# From the text: as §1
# [10] = test system: johnsongrass (Sorghum halepense); assay: Test C postemergence johnsongrass; conditions: Table C, scale 0 to 100
# From the text: as §1
# [11] = test system: oilseed rape (Brassica napus); assay: Test C postemergence oilseed rape; conditions: Table C, scale 0 to 100
# From the text: as §1
# soybean (Glycine max) = assay: Test C postemergence soybean; conditions: Table C, scale 0 to 100
# From the text: as §1
# [12] = test system: galium (catchweed bedstraw, Galium aparine); assay: Test C postemergence galium; conditions: Table C, scale 0 to 100
# From the text: as §1
# [13] = test system: foxtail, giant (giant foxtail, Setaria faberii); assay: Test C postemergence foxtail, giant; conditions: Table C, scale 0 to 100
# From the text: as §1
# [14] = test system: blackgrass (Alopecurus myosuroides); assay: Test C postemergence blackgrass; conditions: Table C, scale 0 to 100
# From the text: as §1
# [15] = test system: waterhemp (common waterhemp, Amaranthus rudis); assay: Test C postemergence waterhemp; conditions: Table C, scale 0 to 100
# From the text: as §1
# [16] = test system: morningglory (Ipomoea spp.); assay: Test A preemergence morningglory; conditions: 0 to 100 scale, 0 no effect, 100 complete control
# How it was run: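 Greenhouse pot test: chemicals formulated with surfactant in non-phytotoxic solvent, sprayed on soil at seeding (pre) or on 1–2 leaf seedlings of 2–10 cm (post). Rating ~10 d later, visual, 0 = no effect to 100 = complete control, relative to untreated controls.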
compound,measurement,setting,value
O=C1NCCC(c2cccc(C(F)(F)F)c2)C1C(=O)Nc1ccc(F)c(F)c1F (racemic) [Compound 28],Plant response rating,[1]; 31 g ai/ha,5
same,Plant response rating,[1]; 62 g ai/ha,5
same,Plant response rating,[1]; 125 g ai/ha,5
same,Plant response rating,[1]; 250 g ai/ha,30
same,Plant response rating,[2]; 31 g ai/ha,35
same,Plant response rating,[2]; 62 g ai/ha,40
same,Plant response rating,[2]; 125 g ai/ha,70
same,Plant response rating,[2]; 250 g ai/ha,90
same,Plant response rating,[3]; 31 g ai/ha,10
same,Plant response rating,[3]; 62 g ai/ha,0
same,Plant response rating,[3]; 125 g ai/ha,20
same,Plant response rating,[3]; 250 g ai/ha,20
same,Plant response rating,[4]; 31 g ai/ha,0
same,Plant response rating,[4]; 62 g ai/ha,0
same,Plant response rating,[4]; 125 g ai/ha,0
same,Plant response rating,[4]; 250 g ai/ha,10
same,Plant response rating,[5]; 31 g ai/ha,0
same,Plant response rating,[5]; 62 g ai/ha,0
same,Plant response rating,[5]; 125 g ai/ha,0
same,Plant response rating,[5]; 250 g ai/ha,0
same,Plant response rating,[6]; 31 g ai/ha,0
same,Plant response rating,[6]; 62 g ai/ha,0
same,Plant response rating,[6]; 125 g ai/ha,0
same,Plant response rating,[6]; 250 g ai/ha,35
same,Plant response rating,corn (Zea mays); 31 g ai/ha,0
same,Plant response rating,corn (Zea mays); 62 g ai/ha,0
same,Plant response rating,corn (Zea mays); 125 g ai/ha,30
same,Plant response rating,corn (Zea mays); 250 g ai/ha,55
same,Plant response rating,[7]; 31 g ai/ha,0
same,Plant response rating,[7]; 62 g ai/ha,0
same,Plant response rating,[7]; 125 g ai/ha,10
same,Plant response rating,[7]; 250 g ai/ha,50
same,Plant response rating,[8]; 31 g ai/ha,80
same,Plant response rating,[8]; 62 g ai/ha,85
same,Plant response rating,[8]; 125 g ai/ha,90
same,Plant response rating,[8]; 250 g ai/ha,90
O=C1NCCC(c2cccc(C(F)(F)F)c2)C1C(=O)Nc1ccccc1Cl (racemic) [Compound 17],Plant response rating,[9]; 31 g ai/ha,0
same,Plant response rating,[9]; 62 g ai/ha,0
same,Plant response rating,[9]; 125 g ai/ha,0
same,Plant response rating,[9]; 250 g ai/ha,5
same,Plant response rating,[10]; 31 g ai/ha,0
same,Plant response rating,[10]; 62 g ai/ha,0
same,Plant response rating,[10]; 125 g ai/ha,0
same,Plant response rating,[10]; 250 g ai/ha,0
same,Plant response rating,[11]; 31 g ai/ha,0
same,Plant response rating,[11]; 62 g ai/ha,0
same,Plant response rating,[11]; 125 g ai/ha,0
same,Plant response rating,[11]; 250 g ai/ha,0
same,Plant response rating,soybean (Glycine max); 31 g ai/ha,0
same,Plant response rating,soybean (Glycine max); 62 g ai/ha,10
same,Plant response rating,soybean (Glycine max); 125 g ai/ha,0
same,Plant response rating,soybean (Glycine max); 250 g ai/ha,0
same,Plant response rating,[12]; 31 g ai/ha,0
same,Plant response rating,[12]; 62 g ai/ha,0
same,Plant response rating,[12]; 125 g ai/ha,0
same,Plant response rating,[12]; 250 g ai/ha,0
same,Plant response rating,[13]; 31 g ai/ha,0
same,Plant response rating,[13]; 62 g ai/ha,5
same,Plant response rating,[13]; 125 g ai/ha,5
same,Plant response rating,[13]; 250 g ai/ha,5
same,Plant response rating,[14]; 31 g ai/ha,0
same,Plant response rating,[14]; 62 g ai/ha,0
same,Plant response rating,[14]; 125 g ai/ha,0
same,Plant response rating,[14]; 250 g ai/ha,0
same,Plant response rating,[15]; 31 g ai/ha,0
same,Plant response rating,[15]; 62 g ai/ha,0
same,Plant response rating,[15]; 125 g ai/ha,0
same,Plant response rating,[15]; 250 g ai/ha,0
"O=C1NCCC(c2cccc(C(F)(F)F)c2)C1C(=O)Nc1cccc(F)c1F (centres unmarked) [Compound 9, N-(2,3-difluorophenyl)-2-oxo-4-[3-(trifluoromethyl)phenyl]-3-piperidinecarboxamide]",Plant response rating,[9]; 31 g ai/ha,0
same,Plant response rating,[9]; 62 g ai/ha,0
same,Plant response rating,[9]; 125 g ai/ha,0
same,Plant response rating,[9]; 250 g ai/ha,5
same,Plant response rating,[10]; 31 g ai/ha,0
same,Plant response rating,[10]; 62 g ai/ha,0
same,Plant response rating,[10]; 125 g ai/ha,0
same,Plant response rating,[10]; 250 g ai/ha,5
same,Plant response rating,[11]; 31 g ai/ha,0
same,Plant response rating,[11]; 62 g ai/ha,0
same,Plant response rating,[11]; 125 g ai/ha,0
same,Plant response rating,[11]; 250 g ai/ha,5
same,Plant response rating,[1]; 31 g ai/ha,0
same,Plant response rating,[1]; 62 g ai/ha,20
same,Plant response rating,[1]; 125 g ai/ha,5
same,Plant response rating,[1]; 250 g ai/ha,45
same,Plant response rating,soybean (Glycine max); 31 g ai/ha,0
same,Plant response rating,soybean (Glycine max); 62 g ai/ha,0
same,Plant response rating,soybean (Glycine max); 125 g ai/ha,0
same,Plant response rating,soybean (Glycine max); 250 g ai/ha,10
same,Plant response rating,[2]; 31 g ai/ha,50
same,Plant response rating,[2]; 62 g ai/ha,40
same,Plant response rating,[2]; 125 g ai/ha,80
same,Plant response rating,[2]; 250 g ai/ha,90
same,Plant response rating,[3]; 31 g ai/ha,0
same,Plant response rating,[3]; 62 g ai/ha,5
same,Plant response rating,[3]; 125 g ai/ha,0
same,Plant response rating,[3]; 250 g ai/ha,0
same,Plant response rating,[4]; 31 g ai/ha,0
same,Plant response rating,[4]; 62 g ai/ha,0
same,Plant response rating,[4]; 125 g ai/ha,35
same,Plant response rating,[4]; 250 g ai/ha,55
same,Plant response rating,[12]; 31 g ai/ha,0
same,Plant response rating,[12]; 62 g ai/ha,0
same,Plant response rating,[12]; 125 g ai/ha,0
same,Plant response rating,[12]; 250 g ai/ha,40
same,Plant response rating,[5]; 31 g ai/ha,0
same,Plant response rating,[5]; 62 g ai/ha,0
same,Plant response rating,[5]; 125 g ai/ha,0
same,Plant response rating,[5]; 250 g ai/ha,40
same,Plant response rating,[6]; 31 g ai/ha,30
same,Plant response rating,[6]; 62 g ai/ha,50
same,Plant response rating,[6]; 125 g ai/ha,30
same,Plant response rating,[6]; 250 g ai/ha,80
same,Plant response rating,[13]; 31 g ai/ha,0
same,Plant response rating,[13]; 62 g ai/ha,5
same,Plant response rating,[13]; 125 g ai/ha,35
same,Plant response rating,[13]; 250 g ai/ha,85
same,Plant response rating,corn (Zea mays); 31 g ai/ha,0
same,Plant response rating,corn (Zea mays); 62 g ai/ha,0
same,Plant response rating,corn (Zea mays); 125 g ai/ha,75
same,Plant response rating,corn (Zea mays); 250 g ai/ha,90
same,Plant response rating,[7]; 31 g ai/ha,0
same,Plant response rating,[7]; 62 g ai/ha,0
same,Plant response rating,[7]; 125 g ai/ha,0
same,Plant response rating,[7]; 250 g ai/ha,0
same,Morningglory plant response rating,[16]; 125 g ai/ha,0
same,Morningglory plant response rating,[16]; 500 g ai/ha,0
same,Plant response rating,[14]; 31 g ai/ha,0
same,Plant response rating,[14]; 62 g ai/ha,0
same,Plant response rating,[14]; 125 g ai/ha,0
same,Plant response rating,[14]; 250 g ai/ha,0
same,Plant response rating,[8]; 31 g ai/ha,95
same,Plant response rating,[8]; 62 g ai/ha,95
same,Plant response rating,[8]; 125 g ai/ha,98
same,Plant response rating,[8]; 250 g ai/ha,98
same,Plant response rating,[15]; 31 g ai/ha,0
same,Plant response rating,[15]; 62 g ai/ha,5
same,Plant response rating,[15]; 125 g ai/ha,0
same,Plant response rating,[15]; 250 g ai/ha,5
"O=C1NCCC(c2cccc(C(F)(F)F)c2)C1C(=O)Nc1ccccc1C(F)(F)F (centres unmarked) [Compound 10, 2-oxo-N-[2-(trifluoromethyl)phenyl)-4-[3-(trifluoromethyl)phenyl]-3-piperidinecarboxamide]",Morningglory plant response rating,[16]; 125 g ai/ha,0
same,Morningglory plant response rating,[16]; 500 g ai/ha,0
